Reference: ChEMBL document CHEMBL1799987, “In vivo and in vitro SAR of tetracyclic MAPKAP-K2 (MK2) inhibitors. Part II” (Bioorg Med Chem Lett, 2010)
≈ marks a conversion by molar mass, not a printed value. One block for each molecule: values may come before it. Calls of active or inactive are those of the source. The calls are words filed in the database; no cut-off is given here.

Legend:
[1] = Thermodynamic solubility of the compound at pH 6.8; type: physicochemical; settings: buffer, read-out: Therm_solubility
[2] = test system: PBMC; test: cells; settings: Homo sapiens
[3] = species on record: Mus musculus; test: animal or person; settings: OF1, po, 1 h, read-out: INH
[4] = test system: Plasma; test: Plasma concentration in OF1 mouse at 100 mg/kg, po; type: ADME, organism-based; design: dose 100 mg/kg, route oral; settings: in vivo
[5] = target: T1, MAP kinase-activated protein kinase 2 (Homo sapiens, UniProt P49137)
[6] = target: T1, MAP kinase-activated protein kinase 2; remark: listed apart in the source
[7] = test system: Mus musculus; test: Antiarthritic activity in DBA/1 mouse assessed as inhibition of collagen-induced proteoglycan loss at 100 mg/kg, po BID; type: functional, organism-based; design: dose 100 mg/kg
[8] = Plasma concentration in antigen-induced arthritic rat model at 100 mg/kg, po BID measured 6 hrs post last dose; type: ADME, organism-based; design: dose 100 mg/kg, route oral
[9] = test system: Rattus norvegicus; test: Volume of distribution at steady state in rat at 1 mg/kg, po; type: ADME, organism-based; design: dose 1 mg/kg, route oral; settings: in vivo
[10] = Half life in rat at 1 mg/kg, po; type: ADME, organism-based; design: dose 1 mg/kg, route oral; settings: in vivo
[11] = test system: Mus musculus; test: Antiarthritic activity in DBA/1 mouse assessed as inhibition of collagen-induced inflammatory cell infiltration at 100 mg/kg, po BID; type: functional, organism-based; design: dose 100 mg/kg
[12] = test system: Rattus norvegicus; test: Antiarthritic activity in rat assessed as inhibition of antigen-induced paw swelling at 100 mg/kg, po BID; type: functional, organism-based; design: dose 100 mg/kg
[13] = test system: Rattus norvegicus; test: Toxicity in antigen-induced arthritic rat model assessed as body weight reduction at 100 mg/kg, po BID; type: organism-based; design: dose 100 mg/kg, route oral; settings: in vivo
[14] = Clearance in rat at 1 mg/kg, po; type: ADME, organism-based; design: dose 1 mg/kg, route oral; settings: in vivo
[15] = Cmax in rat at 1 mg/kg, po; type: ADME, organism-based; design: dose 1 mg/kg, route oral; settings: in vivo
[16] = test system: Mus musculus; test: Antiarthritic activity in DBA/1 mouse assessed as inhibition of collagen-induced joint erosion at 100 mg/kg, po BID; type: functional, organism-based; design: dose 100 mg/kg
[17] = Plasma concentration in antigen-induced arthritic rat model at 100 mg/kg, po BID measured 16 hrs post last dose; type: ADME, organism-based; design: dose 100 mg/kg, route oral
[18] = test system: Mus musculus; test: Toxicity in collagen-induced arthritic DBA/1 mouse model assessed as body weight reduction at 100 mg/kg, po BID; type: organism-based; design: dose 100 mg/kg, route oral; settings: in vivo
[19] = test system: Mus musculus; test: Antiarthritic activity in DBA/1 mouse assessed as inhibition of collagen-induced paw swelling at 100 mg/kg, po BID; type: functional, organism-based; design: dose 100 mg/kg
[20] = Plasma concentration in collagen-induced arthritic DBA/1 mouse model at 100 mg/kg, po BID measured 2 hrs post last dose; type: ADME, organism-based; design: dose 100 mg/kg, route oral
[21] = Oral bioavailability in rat at 1 mg/kg; type: ADME, organism-based; settings: in vivo
[22] = Plasma concentration in collagen-induced arthritic DBA/1 mouse model at 100 mg/kg, po BID measured 6 hrs post last dose; type: ADME, organism-based; design: dose 100 mg/kg, route oral
[23] = Plasma concentration in antigen-induced arthritic rat model at 100 mg/kg, po BID measured 2 hrs post last dose; type: ADME, organism-based; design: dose 100 mg/kg, route oral
[24] = test system: Mus musculus; test: Antiarthritic activity in DBA/1 mouse assessed as inhibition of collagen-induced joint damage at 100 mg/kg, po BID; type: functional, organism-based; design: dose 100 mg/kg
[25] = AUC in rat at 1 mg/kg, po; type: ADME, organism-based; design: dose 1 mg/kg, route oral; settings: plasma

T1 sequence (P49137 whole entry): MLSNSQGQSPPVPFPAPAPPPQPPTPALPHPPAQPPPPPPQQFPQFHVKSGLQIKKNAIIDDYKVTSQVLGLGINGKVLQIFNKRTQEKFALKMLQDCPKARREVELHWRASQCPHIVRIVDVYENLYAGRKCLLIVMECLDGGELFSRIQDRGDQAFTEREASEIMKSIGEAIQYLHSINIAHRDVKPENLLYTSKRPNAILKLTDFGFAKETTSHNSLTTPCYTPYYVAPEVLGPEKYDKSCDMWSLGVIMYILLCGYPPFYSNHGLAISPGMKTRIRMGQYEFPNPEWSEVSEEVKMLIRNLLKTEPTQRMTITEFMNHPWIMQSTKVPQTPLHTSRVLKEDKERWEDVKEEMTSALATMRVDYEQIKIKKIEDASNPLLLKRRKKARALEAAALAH

- solubility thermodynamic [1]: > 1000 µM
SMILES: CN1CCC2(CC1)CNC(=O)c1c2[nH]c2c1CCc1cnc(-c3ccccc3F)cc1-2
- IC50 [2]: 200 nM

- solubility thermodynamic [1]: 337 µM (≈ 126 µg/mL)
SMILES: O=C1NCC2(CNC2)c2[nH]c3c(c21)CCc1cnc(-c2ccccc2F)cc1-3
- IC50 [2]: 100 nM

- solubility thermodynamic [1]: 5 µM (≈ 1.8 µg/mL)
- concentration [4]: 15 µM
SMILES: O=C1NC2(CC2)Cc2[nH]c3c(c21)CCc1cnc(-c2cccc(F)c2)cc1-3
- inhibition in vivo at 100 mg/kg [3]: 55%
- IC50 [2]: 800 nM

- solubility thermodynamic [1]: 173 µM (≈ 67.5 µg/mL)
SMILES: CN1CC2(CNC(=O)c3c2[nH]c2c3CCc3cnc(-c4ccc(F)nc4)nc3-2)C1
- IC50 [2]: 700 nM

- solubility thermodynamic [1]: < 4 µM
SMILES: O=C1NC2(CC2)Cc2[nH]c3c(c21)CCc1cnc(-c2ccc(F)nc2)nc1-3
- IC50 [2]: 700 nM

- solubility thermodynamic [1]: < 4 µM
SMILES: COc1ccc(-c2cc3c(cn2)CCc2c-3[nH]c3c2C(=O)NCC3)cc1
- IC50 [2]: 100 nM

- solubility thermodynamic [1]: < 4 µM
- concentration [4]: 0.6 µM
SMILES: COc1ccc(-c2cc3c(cn2)CCc2c-3[nH]c3c2C(=O)NCC32CC2)cc1
- inhibition in vivo at 100 mg/kg [3]: 16%
- IC50 [2]: 1700 nM

- solubility thermodynamic [1]: 32 µM (≈ 12.4 µg/mL)
SMILES: COc1ccc(-c2cc3c(cn2)CCc2c-3[nH]c3c2C(=O)NC2(CNC2)C3)cc1
- IC50 [2]: 1300 nM

- concentration at 6 h [8]: 9.8 µM
- Vdss [9]: 1.9 L/kg
- solubility thermodynamic [1]: 9 µM (≈ 3.24 µg/mL)
- half-life [10]: 1.3 h
- CL/F [14]: 12 mL/min/kg
- Cmax [15]: 0.105 µM
- concentration at 16 h [17]: 0.5 µM
- concentration at 2 h [20]: 16 µM
- concentration [4]: 30 µM
- bioavailability [21]: 24%
- concentration at 6 h [22]: 2.4 µM
- concentration at 2 h [23]: 11.7 µM
- AUC [25]: 2 µM·h
SMILES: O=C1NC2(CC2)Cc2[nH]c3c(c21)CCc1cnc(-c2ccc(F)nc2)cc1-3
- Activity [7]: Active
- Activity [11]: Active
- Activity [12]: Active
- Activity [13]: Non-toxic
- inhibition in vivo at 100 mg/kg [3]: 96%
- Activity [16]: Active
- Activity [18]: Non-toxic
- Activity [19]: Active
- Activity [24]: Active
- IC50 [2]: 300 nM

- solubility thermodynamic [1]: < 4 µM
SMILES: O=C1NCC2(CC2)c2[nH]c3c(c21)CCc1cnc(-c2cccc(F)c2)cc1-3
- IC50 [2]: 900 nM

- solubility thermodynamic [1]: < 4 µM
SMILES: O=C1NCCc2[nH]c3c(c21)CCc1cnc(-c2cccc(F)c2)cc1-3
- IC50 [2]: 500 nM

- solubility thermodynamic [1]: 8 µM (≈ 3.12 µg/mL)
SMILES: COCCOc1cncc(-c2cc3c(cn2)CCc2c-3[nH]c3c2C(=O)NCC3)c1
- IC50 [2]: 400 nM

The next lines start with the molecule.

SMILES: O=C1NCCc2[nH]c(-c3ccnc(-c4ccccc4F)c3)cc21
- solubility thermodynamic [1]: 337 µM (≈ 104 µg/mL)
- IC50 [2]: > 10000 nM

SMILES: COCCOc1cncc(-c2ncc3c(n2)-c2[nH]c4c(c2CC3)C(=O)NCC42CN(C)C2)c1
- IC50 [2]: 1500 nM

SMILES: CN1CC2(CNC(=O)c3c2[nH]c2c3CCc3cnc(-c4ccc(OCCN5CCOCC5)cc4)cc3-2)C1
- IC50 [2]: 600 nM

SMILES: CN1CC2(CNC(=O)c3c2[nH]c2c3Cc3cnc(-c4ccccc4F)cc3-2)C1
- solubility thermodynamic [1]: 69 µM (≈ 25.8 µg/mL)
- IC50 [2]: > 10000 nM

SMILES: Cn1c2c(c3c1C1(CNC1)CNC3=O)CCc1cnc(-c3ccccc3F)cc1-2
- solubility thermodynamic [1]: 54 µM (≈ 21 µg/mL)
- IC50 [2]: 1800 nM

SMILES: COc1ccc(-c2ncc3c(n2)-c2[nH]c4c(c2CC3)C(=O)NCC42CC2)cc1
- solubility thermodynamic [1]: < 4 µM
- IC50 [2]: 400 nM

SMILES: COCCOc1cncc(-c2cc3c(ccc4c5c([nH]c43)CCNC5=O)cn2)c1
- solubility thermodynamic [1]: < 4 µM
- IC50 [5]: 10 nM
- IC50 [6]: 1500 nM
- IC50 [2]: 300 nM

SMILES: COCCOc1cncc(-c2cc3c(cn2)CCCc2c-3[nH]c3c2C(=O)NCC3)c1
- solubility thermodynamic [1]: 21 µM (≈ 8.49 µg/mL)
- IC50 [2]: 1100 nM

SMILES: CN1CC2(CNC(=O)c3c2[nH]c2c3CCc3cnc(-c4cccc(F)c4)nc3-2)C1
- IC50 [2]: 500 nM

SMILES: O=C1NCC2(CNC2)c2oc3c(c21)CCc1cnc(-c2cccc(F)c2)cc1-3
- solubility thermodynamic [1]: 51 µM (≈ 19.1 µg/mL)
- IC50 [2]: 2500 nM
